Read-outs that look alike come from different tables or passages of the source. Values belong to the compound of their own block, whether it stands above or below them.
Legend:
p53–CBP interaction = conditions: at 50 μM; cited from earlier work
CBP BRD = conditions: cited from earlier work
[1] = tested on: p53-induced p21 activation; conditions: luciferase reporter-gene assay; read-out: Inhibition of p53-induced p21 activation IC50; cited from earlier work
BRD4(1) [2] = biological target: T1, BRD4(1) (Homo sapiens, UniProt O60885); experiment: Peptide displacement AlphaScreen; format: binding
CBP [3] = biological target: T2, CBP (Homo sapiens, UniProt Q92793); experiment: Peptide displacement AlphaScreen; format: binding
BRD9 [4] = biological target: T3, BRD9 (Homo sapiens, UniProt Q9H8M2); experiment: Peptide displacement AlphaScreen; format: binding
T3 construct: using recombinant BRDs as surrogates of full-length protein
T3 sequence (Q9H8M2 136-240 limits assumed): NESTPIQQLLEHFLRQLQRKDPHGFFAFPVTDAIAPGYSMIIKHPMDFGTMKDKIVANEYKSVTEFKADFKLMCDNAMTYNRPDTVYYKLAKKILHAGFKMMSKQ

BRD9 [5] = biological target: T3, BRD9; experiment: DSF (ΔTm) selectivity panel; format: binding; conditions: compound 10 µM
CBP [6] = biological target: T2, CBP; experiment: DSF (ΔTm) thermal stability assay; format: binding; conditions: compound concentration 10 μM, mean ± SEM (number of measurements)
BRD4(1) [7] = biological target: T1, BRD4(1); experiment: DSF (ΔTm) thermal stability assay; format: binding; conditions: compound concentration 10 μM, mean ± SEM (number of measurements)
CBP [8] = biological target: T2, CBP; experiment: Isothermal titration calorimetry (ITC)
CECR2 [9] = biological target: T4, CECR2 (Homo sapiens, UniProt Q9BXF3); experiment: DSF (ΔTm) selectivity panel; format: binding; conditions: compound 10 µM
T4 construct: using recombinant BRDs as surrogates of full-length protein

BRD4(1) [10] = biological target: T1, BRD4(1); experiment: Isothermal titration calorimetry (ITC)
p300 [11] = biological target: T5, p300 (Homo sapiens, UniProt Q09472); experiment: Peptide displacement AlphaScreen; format: binding
T5 sequence (Q09472 1049-1156 limits assumed): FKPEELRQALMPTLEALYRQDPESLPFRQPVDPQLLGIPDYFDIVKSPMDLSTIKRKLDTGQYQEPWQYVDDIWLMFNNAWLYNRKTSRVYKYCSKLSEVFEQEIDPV

p300 [12] = biological target: T5, p300; experiment: Isothermal titration calorimetry (ITC)
CECR2 [13] = biological target: T4, CECR2; experiment: Peptide displacement AlphaScreen; format: binding
p300 [14] = biological target: T5, p300; experiment: DSF (ΔTm) thermal stability assay; format: binding; conditions: compound 10 µM
ATAD2 [15] = biological target: T6, ATAD2 (Homo sapiens, UniProt Q6PL18); experiment: Peptide displacement AlphaScreen; format: binding
T6 construct: using recombinant BRDs as surrogates of full-length protein
T6 sequence (Q6PL18 980-1092 limits assumed): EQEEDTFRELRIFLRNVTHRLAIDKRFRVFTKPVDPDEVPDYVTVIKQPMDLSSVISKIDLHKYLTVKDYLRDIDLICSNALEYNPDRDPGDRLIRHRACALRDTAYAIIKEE

ATAD2 [16] = biological target: T6, ATAD2; experiment: DSF (ΔTm) thermal stability assay; format: binding; conditions: compound 10 µM
[17] = tested on: GFP-tagged 3 × CBP BRD construct; experiment: Fluorescence recovery after photo-bleaching (FRAP) assay; conditions: HeLa cells, SAHA-treated, compound 0.1 μM
BAZ2A [18] = biological target: T7, BAZ2A (Homo sapiens, UniProt Q9UIF9); experiment: DSF (ΔTm) thermal stability assay; format: binding; conditions: compound 10 µM
T7 construct: using recombinant BRDs as surrogates of full-length protein

BAZ2A [19] = biological target: T7, BAZ2A; experiment: Peptide displacement AlphaScreen; format: binding
[20] = tested on: p53-driven luciferase activity in RKO cells; experiment: p53 luciferase reporter assay; format: cell-based, human; conditions: compound 24 h then doxorubicin 0.3 μM 16 h, read-out: Inhibition of doxorubicin-induced p53-driven luciferase activity IC50
Procedure: Refinement was carried out in
refinement cycles. […] The
Cell culture and reagents
Fluorescence Recovery After Photobleaching (FRAP) Assay
In brief RKO cells were transfected with
well plate format using Fugene HD (Roche).
Compounds were dissolved in dimethyl sulfoxide
5 ul of compound solution was added
mixing plates returned to the incubator.

[21] = Human liver microsome (HLM) stability assay; format: in vitro ADME; conditions: microsomes, 1 h
BRD3(1) = biological target: T8, BRD3(1) (Homo sapiens, UniProt Q15059); experiment: DSF (ΔTm) selectivity panel; format: binding; conditions: compound 10 µM
T8 construct: using recombinant BRDs as surrogates of full-length protein

BRD2(1) = biological target: T9, BRD2(1) (Homo sapiens, UniProt P25440); experiment: DSF (ΔTm) selectivity panel; format: binding; conditions: compound 10 µM
T9 construct: using recombinant BRDs as surrogates of full-length protein

PDE5 (h) (non-selective) = biological target: T10, PDE5 (h) (non-selective) (Homo sapiens, UniProt O76074); experiment: Cerep profiling; format: biochemical
T10 construct: CEREP (BioPrint Full Panel, contract assay)

alpha 2A (h) = biological target: T11, alpha 2A (h) (Homo sapiens, UniProt P08913); experiment: Cerep profiling, antagonist radioligand; format: binding
T11 construct: CEREP (BioPrint Full Panel, contract assay)

alpha 2C (h) = biological target: T12, alpha 2C (h) (Homo sapiens, UniProt P18825); experiment: Cerep profiling, antagonist radioligand; format: binding
T12 construct: CEREP (BioPrint Full Panel, contract assay)

PAF (h) = PAF (h) (Homo sapiens, UniProt P25105); experiment: Cerep profiling, agonist radioligand
Cytotoxicity assay = conditions: human, U2OS osteosarcoma cells

T2 sequence (Q92793 1085-1192 limits assumed): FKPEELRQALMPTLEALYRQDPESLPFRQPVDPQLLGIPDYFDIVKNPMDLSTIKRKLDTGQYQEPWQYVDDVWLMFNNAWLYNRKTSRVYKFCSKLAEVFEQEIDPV
T4 sequence (Q9BXF3 434-538 limits assumed): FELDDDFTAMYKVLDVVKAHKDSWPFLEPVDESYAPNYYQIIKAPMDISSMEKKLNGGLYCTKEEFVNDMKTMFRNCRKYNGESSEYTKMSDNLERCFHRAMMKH
T7 sequence (Q9UIF9 1793-1897 limits assumed): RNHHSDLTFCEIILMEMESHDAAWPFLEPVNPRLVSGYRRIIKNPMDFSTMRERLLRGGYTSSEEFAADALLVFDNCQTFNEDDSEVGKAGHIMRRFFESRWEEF
T8 sequence (Q15059 34-140 limits assumed): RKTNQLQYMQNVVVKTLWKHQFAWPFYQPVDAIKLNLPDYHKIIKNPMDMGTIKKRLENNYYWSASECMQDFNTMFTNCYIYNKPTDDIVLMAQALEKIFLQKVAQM
T11 sequence (P08913 whole entry): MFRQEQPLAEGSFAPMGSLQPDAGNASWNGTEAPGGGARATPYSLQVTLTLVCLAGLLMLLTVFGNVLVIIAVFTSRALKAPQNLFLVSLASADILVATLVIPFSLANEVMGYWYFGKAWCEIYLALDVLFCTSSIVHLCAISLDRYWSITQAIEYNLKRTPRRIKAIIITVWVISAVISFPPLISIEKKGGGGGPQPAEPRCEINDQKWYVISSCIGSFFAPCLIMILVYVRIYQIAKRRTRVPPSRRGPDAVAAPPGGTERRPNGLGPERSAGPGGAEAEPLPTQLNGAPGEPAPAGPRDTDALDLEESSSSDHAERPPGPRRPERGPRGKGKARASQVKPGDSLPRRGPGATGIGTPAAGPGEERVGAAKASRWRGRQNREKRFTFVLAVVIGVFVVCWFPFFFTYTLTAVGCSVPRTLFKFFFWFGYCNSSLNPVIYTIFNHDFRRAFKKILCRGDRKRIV
T12 sequence (P18825 whole entry): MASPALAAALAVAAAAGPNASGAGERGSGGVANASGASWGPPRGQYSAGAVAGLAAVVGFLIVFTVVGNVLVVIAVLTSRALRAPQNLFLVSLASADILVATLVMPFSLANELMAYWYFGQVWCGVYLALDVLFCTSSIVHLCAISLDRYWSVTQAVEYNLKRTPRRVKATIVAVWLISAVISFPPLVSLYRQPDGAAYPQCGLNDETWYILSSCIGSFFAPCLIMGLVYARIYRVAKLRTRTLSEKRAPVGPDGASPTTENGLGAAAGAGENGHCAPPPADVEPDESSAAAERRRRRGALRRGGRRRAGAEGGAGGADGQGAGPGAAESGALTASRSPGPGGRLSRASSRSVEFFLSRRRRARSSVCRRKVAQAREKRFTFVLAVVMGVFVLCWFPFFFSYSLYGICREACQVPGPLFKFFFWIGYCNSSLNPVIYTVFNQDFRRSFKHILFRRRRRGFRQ
T9 sequence (P25440 74-180 limits assumed): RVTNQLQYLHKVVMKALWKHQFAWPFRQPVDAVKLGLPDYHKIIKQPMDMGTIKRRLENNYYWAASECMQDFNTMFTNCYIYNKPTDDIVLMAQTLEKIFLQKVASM
PAF (h), sequence (P25105 whole entry): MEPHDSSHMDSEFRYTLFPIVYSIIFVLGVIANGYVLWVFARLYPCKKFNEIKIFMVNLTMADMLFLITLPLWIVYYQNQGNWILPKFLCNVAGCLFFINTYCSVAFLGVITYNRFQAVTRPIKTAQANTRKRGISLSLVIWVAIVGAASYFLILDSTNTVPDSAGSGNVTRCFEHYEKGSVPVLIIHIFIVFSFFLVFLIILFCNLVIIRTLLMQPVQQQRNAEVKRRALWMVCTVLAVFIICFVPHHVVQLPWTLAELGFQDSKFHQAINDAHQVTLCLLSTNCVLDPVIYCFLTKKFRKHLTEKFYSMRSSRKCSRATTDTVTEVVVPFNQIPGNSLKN

Compound: CC(=O)n1c2c(c3ccccc31)CCCC2=O [Compound 1]
Effect on the p53–CBP interaction in a competition assay (p53–CBP interaction): block | Kd (CBP BRD): 19600 nM

Compound: Cc1cc(/N=N/c2cc(S(=O)(=O)O)c(C)cc2C)c(N)cc1O [Compound 2]
IC50 [1]: 5000 nM

IC50 (BRD4(1) [2]): 9100 nM | IC50 (CBP [3]; read-out: AlphaScreen IC50 CBP): 840 nM | IC50 (BRD9 [4]): 100000 nM | ΔTm at 10 µM (BRD9 [5]): 1.5 °C | ΔTm at 10 µM (CBP [6]): 5.4 °C | ΔTm at 10 µM (BRD4(1) [7]): 2.7 °C
Compound: Cc1noc(C)c1-c1ccc2c(c1)nc(CCc1ccccc1)n2CCN1CCCC1 [Compound 15]

IC50 (BRD4(1) [2]): 2400 nM | IC50 (CBP [3]; read-out: AlphaScreen IC50 CBP): 180 nM | IC50 (BRD9 [4]): > 25000 nM | ΔTm at 10 µM (CBP [6]): 6.5 °C | ITC N (molar binding ratio of the ligand-protein interaction), CBP (CBP [8]): 1.00 ± 0.00223 | ITC ∆G, CBP (CBP [8]): -8.66 kcal/mol | ITC ∆H, CBP (CBP [8]): -5.76 ± 0.0184 kcal/mol | ITC 9T∆S, CBP (CBP [8]; At T = 298.15 K): -2.90 kcal/mol | Kd (CBP [8]; ITC Ka, CBP): 323 nM | ΔTm at 10 µM (CECR2 [9]): 1 °C | ITC N (molar binding ratio of the ligand-protein interaction), BRD4(1) (BRD4(1) [10]): 1.10 ± 0.005 | ITC ∆G, BRD4(1) (BRD4(1) [10]): -8.01 kcal/mol | ITC ∆H, BRD4(1) (BRD4(1) [10]): -5.86 ± 0.0338 kcal/mol | ITC 9T∆S, BRD4(1) (BRD4(1) [10]; At T = 298.15 K): -2.15 kcal/mol | Kd (BRD4(1) [10]; ITC Ka, BRD4(1)): 952 nM | IC50 (p300 [11]): 140 nM | ΔTm at 10 µM (BRD4(1) [7]): 2.7 °C | ITC N (molar binding ratio of the ligand-protein interaction), p300 (p300 [12]): 1.00 ± 0.0028 | ITC ∆G, p300 (p300 [12]): -8.60 kcal/mol | ITC ∆H, p300 (p300 [12]): -6.09 ± 0.0245 kcal/mol | Kd (p300 [12]): 347 nM | ITC 9T∆S, p300 (p300 [12]; At T = 298.15 K): -2.51 kcal/mol | IC50 (CECR2 [13]): 12000 nM | ΔTm at 10 µM (p300 [14]): 7.9 °C
Compound: Cc1noc(C)c1-c1ccc2c(c1)nc(CCc1ccccc1)n2CCN1CCCCC1 [Compound 16]

IC50 (ATAD2 [15]): 42000 nM | IC50 (BRD4(1) [2]): 9800 nM | IC50 (CBP [3]; mean ± SEM (number of measurements), read-out: CBP AlphaScreen pIC50 (converted)): 158 nM | IC50 (CBP [3]; read-out: AlphaScreen IC50 CBP): 820 nM | ΔTm at 10 µM (ATAD2 [16]): 0.16 °C | ΔTm at 10 µM (CBP [6]): 3.9 °C | DSF ΔTm CBP (CBP [6]; 10 µM): 6.5 °C | Kd (BRD4(1) [10]; ITC Kd BRD4(1), 15 °C): 950 ± 44 nM | Selectivity for CBP over BRD4(1) (BRD4(1) [10]; from ITC Kd values): 3.0 fold | ΔTm at 10 µM (BRD4(1) [7]): 2.1 °C | DSF ΔTm BRD4(1) (BRD4(1) [7]; 10 µM): 2.7 °C | Selectivity for p300 over BRD4(1) (p300 [12]; from ITC Kd values): 2.7 fold
Compound: Cc1noc(C)c1-c1ccc2c(c1)nc(CCc1ccccc1)n2CCN1CCOCC1 [Compound 17]
FRAP half-time of fluorescence recovery (t1/2), GFP-tagged 3× CBP BRD [17]: 0.66 s

IC50 (ATAD2 [15]): 19000 nM | IC50 (BRD4(1) [2]): 4100 nM | IC50 (CBP [3]; read-out: AlphaScreen IC50 CBP): 2000 nM | ΔTm at 10 µM (BAZ2A [18]): -0.52 °C | ΔTm at 10 µM (ATAD2 [16]): 0.03 °C | ΔTm at 10 µM (CBP [6]): 2 °C | IC50 (BAZ2A [19]): 14000 nM | ΔTm at 10 µM (BRD4(1) [7]): 1.2 °C
Compound: Cc1noc(C)c1-c1ccc2c(c1)nc(CCc1ccccc1)n2CCN1CCN(C)CC1 [Compound 18]

Compound: COc1ccc(CCc2nc3cc(-c4c(C)noc4C)ccc3n2C[C@H](C)N2CCOCC2)cc1Cl [Compound 59]
IC50 ([20]; Homo sapiens, RKO): 1540 nM | IC50 [20]: 1500 nM | HLM stability: compound detected after 60 min [21]: no compound was detected | ΔTm at 10 µM (BRD3(1)): 1 to 2 °C | ΔTm at 10 µM (BRD2(1)): 1 to 2 °C | IC50 (PDE5 (h) (non-selective)): 150 nM | IC50 (alpha 2A (h)): 570 nM | IC50 (alpha 2C (h)): 110 nM | IC50 (PAF (h)): 540 nM | FRAP half-time of fluorescence recovery (t1/2), GFP-tagged 3× CBP BRD [17]: 0.60 s | ΔTm at 10 µM (BRD4(1) [7]): 1 to 2 °C | CC50 at 24 h (Cytotoxicity assay): 80000 nM | CC50 at 72 h (Cytotoxicity assay): 8100 nM

Reference: paper PMC4183655, “Discovery and Optimization of Small-Molecule Ligands for the CBP/p300 Bromodomains” (Journal of the American Chemical Society, 2014)
